Reference: PMC9271885 (eBioMedicine, 2022)
Several values for one entry are separate records, joined by “and”; a condition that tells them apart may be missing. Equal values may be shown once.

Assays:
SARS-CoV-2 [1] = assay: Hamster model of SARS-CoV-2 infection, intranasal NTZ treatment (lung, plasma, nasal turbinates); type: in vivo, Syrian hamsters; set-up: Lung Infectious titers / Lung Viral RNA yields / Plasmatic viral RNA yields / Nasal Turbinates Infectious titers / Nasal Turbinates Viral RNA yields: unit not given here
SARS-CoV-2 [2] = assay: Lung histopathological changes in infected hamsters (cumulative score, grade of severity); type: in vivo, Syrian hamsters
Method: The anatomo-histological study was implemented as previously described.[24]^,[26] Briefly, lungs were collected after intratracheal instillation of 4% (w/v) formaldehyde solution, and then fixed 72h at room temperature with a 4% (w/v) formaldehyde solution before being embedded in paraffin. Tissue sections of 3.5µm were stained with hematoxylin-eosin (H&E) and blindly analyzed by a certified veterinary pathologist. Microscopic examination was done using a Nikon Eclipse E400 microscope. Different anatomic compartments were examined (1) for bronchial and alveolar walls, a score of 0 to 4 was assigned based on severity of inflammation; (2) regarding alveoli, a score of 0 to 2 was assigned based on presence and severity of hemorrhagic necrosis; (3) regarding vessel changes (leucocytic accumulation in vascular wall or in endothelial compartment), absence or presence was scored 0 or 1 respectively. A cumulative score was then calculated and assigned to a grade of severity (see Supplementary Table 4).
Groups of 4 hamsters, intranasally infected with 10^4 TCID50 of SARS-CoV-2, were orally treated at a dose of 500mg/kg/day BID for 4 days (0, 1, 2 and 3 dpi) (Figure 4a). Untreated hamsters (group of 4 animals) received the suspension vehicle BID. Animals were sacrificed at 5 dpi and a cumulative score from 0 to 10 (taking into account severity of inflammation, alveolar hemorrhagic necrosis and vessel lesions) was calculated and then assigned to a grade of severity (0=normal; 1=mild; 2=moderate; 3=marked and 4=severe; details in Supplementary Data 4).

[3] = NTZ emulsion 2.8mg/kg/day TID intranasal, 3 dpi, first experiment
[4] = Nitazoxanide IN 2.8mg/kg/day TID, inoculum 104 TCID50, sacrifice day 3, Figure 5, individual animals
[5] = Nitazoxanide IN 2.8mg/kg/day TID, inoculum 104 TCID50, sacrifice day 3, Figure SF 2, individual animals
[6] = nitazoxanide 500mg/kg/day per os BID, day of sacrifice 5, individual animals

In the case of `CC(=O)Oc1ccccc1C(=O)Nc1ncc([N+](=O)[O-])s1` [NTZ, Nitazoxanide], the “viral replication in clarified lung homogenates, plasma or nasal turbinates vs untreated” value (SARS-CoV-2 [1]; NTZ 2.8mg/kg/day TID intranasal, repeated independent experiment) is reported as “no significant differences”, the “infectious titers in clarified lung homogenates vs untreated” value (SARS-CoV-2 [1]; [3]) is reported as “significant increase” and the “infectious titers in nasal turbinates vs untreated” value (SARS-CoV-2 [1]; [3]) is reported as “no significant differences”. The “viral RNA load in nasal turbinates vs untreated” value (SARS-CoV-2 [1]; [3]) was “significant reduction”, the “viral RNA yields in clarified lung homogenates vs untreated” value (SARS-CoV-2 [1]; [3]) was “No significant differences” and the “viral RNA yields in plasma vs untreated” value (SARS-CoV-2 [1]; [3]) was “No significant differences”. For the same molecule, the “Lung Infectious titers” value (SARS-CoV-2 [1]; [4]) was 7.738 and 7.565 and 7.260 and 7.126 and 7.436 and 7.154, the “Lung Viral RNA yields” value (SARS-CoV-2 [1]; [4]) was 8.897 and 8.809 and 8.599 and the “Nasal Turbinates Infectious titers” value (SARS-CoV-2 [1]; [4]) was 2.483 and 2.551 and 3.472 and 4.082 and 3.115 and 4.229. For the same molecule, the “Nasal Turbinates Viral RNA yields” value (SARS-CoV-2 [1]; [4]) was 4.363 and 4.565 and 5.134 and 5.523 and 5.262 and 5.603, the “Plasmatic viral RNA yields” value (SARS-CoV-2 [1]; [4]) was 3.551 and 4.595 and 4.938 and 4.386 and 5.492 and 4.672 and the “Lung Infectious titers” value (SARS-CoV-2 [1]; [5]) was 6.420 and 6.814 and 6.658 and 6.401 and 6.100 and 6.859. For the same molecule, the “Lung Viral RNA yields” value (SARS-CoV-2 [1]; [5]) was 7.102 and 7.087, the “Nasal Turbinates Infectious titers” value (SARS-CoV-2 [1]; [5]) was 3.220 and 2.494 and 2.987 and 4.228 and 2.922 and 3.399 and the “Nasal Turbinates Viral RNA yields” value (SARS-CoV-2 [1]; [5]) was 5.240 and 5.486 and 5.403 and 6.486 and 5.764 and 5.350. The “histopathological cumulative scores in lungs vs untreated” value (SARS-CoV-2 [2]; NTZ 500mg/kg/day BID oral for 4 days, sacrificed at 5 dpi) was “no significant difference”, the “Histologic scores Bronchitis” value (SARS-CoV-2 [2]; [6]) was 4 and 3 and the “Histologic scores Endothelitis / Vasculitis” value (SARS-CoV-2 [2]; [6]) was 1. For the same molecule, the “Histologic scores Hemorrhagic necrosis” value (SARS-CoV-2 [2]; [6]) was 0 and 1, the “Histologic scores Interstitial pneumonia” value (SARS-CoV-2 [2]; [6]) was 4 and 3 and the “Histologic scores Total score” value (SARS-CoV-2 [2]; [6]) was 9 and 10 and 8 and 7. For the same molecule, the “Histologic scores Grade” value (SARS-CoV-2 [2]; nitazoxanide 500mg/kg/day per os BID, day of sacrifice 5, individual animals, grade printed as number) was 4 and 3.
